Reference: paper PMC7339578, “Multiple circulating alkaloids and saponins from intravenous Kang-Ai injection inhibit human cytochrome P450 and UDP-glucuronosyltransferase isozymes: potential drug–drug interactions” (Chinese Medicine, 2020)
Several values for one entry are separate records, joined by “and”; a condition that tells them apart may be missing. Identical values can stand only once.

Columns and labels:
[1] = Urinary (renal) excretion in rats after a 30-min infusion of Kang-Ai injection; format: in vivo, Sprague–Dawley rats
Experimental: (§1) For urine sampling, the rats were housed singly in metabolic cages. And then, the urine samples were collected at 0–4, 4–8 and 8–12 h after starting infusion and were weighed. Likewise, bile samples were also collected at 0–3, 3–6, 6–9 and 9–12 h after starting infusion and were weighed. The urine and bile collection tubes were all frozen at − 80 °C.
(§2) Pharmacokinetic parameters were estimated by non-compartmental analysis using WinNonlin 6.3 software (Pharsight, NC, US). Data are presented as the mean ± SD (n = 3). The area under the concentration–time curve up to the last measured point in time (AUC0-t) was calculated using the trapezoidal rule. The total plasma clearance (CLtot, p) was calculated by dividing the compound dose by the AUC0-∞, and the distribution volume at steady state (VSS) was estimated by multiplying the CLtot, p by the mean residence time (MRT). The renal excretory clearance (CLR) and hepatobiliary (CLB) was determined by dividing the cumulative amount excreted into urine (Cum.Ae-U) and bile (Cum.Ae-B) by the plasma AUC0-∞, respectively. The fractions of dose excreted into urine (fe-U) and the fractions of dose excreted into bile (fe-B) were established using the relationship Cum.Ae-U/Dose and Cum.Ae-B/Dose, respectively. Mean differences between treatment and control groups were analyzed by two-tailed unpaired Student’s t test by Graphpad Prism V5 software (SanDiego, CA). The level of significance was set at p < 0.05 (∗), p < 0.01 (∗∗) or p < 0.001 (∗∗∗).

[2] = Biliary (hepatobiliary) excretion in rats after a 30-min infusion of Kang-Ai injection; format: in vivo, Sprague–Dawley rats
Experimental: as §1, §2

[3] = rat urine 0–12 h, Kang-Ai injection 6 mL/kg iv
[4] = rat bile 0–12 h, Kang-Ai injection 6 mL/kg iv

CC(C)=CCC[C@](C)(O[C@@H]1O[C@H](CO)[C@@H](O)[C@H](O)[C@H]1O)[C@H]1CC[C@]2(C)[C@@H]1[C@H](O)C[C@@H]1[C@@]3(C)CC[C@H](O)C(C)(C)[C@@H]3[C@@H](O[C@@H]3O[C@H](CO)[C@@H](O)[C@H](O)[C@H]3O[C@@H]3OC[C@@H](O)[C@H](O)[C@H]3O)C[C@]12C [Compound C10, Ginsenoside R1]
fe-U,0–12h (fraction of dose excreted into urine) [1, 3]: 40.28 ± 5.48%

CC(C)=CC/C=C(\C)[C@H]1CC[C@]2(C)[C@@H]1[C@H](O)C[C@@H]1[C@@]3(C)CC[C@H](O)C(C)(C)[C@@H]3[C@@H](O[C@@H]3O[C@H](CO)[C@@H](O)[C@H](O)[C@H]3O)C[C@]12C [Compound E2, Ginsenoside Rh4]
fe-B,0–12h (fraction of dose excreted into bile) [2, 4]: 46.95 ± 6.46%

C=C(CCC=C(C)C)[C@H]1CC[C@]2(C)[C@@H]1[C@H](O)C[C@@H]1[C@@]3(C)CC[C@H](O)C(C)(C)[C@@H]3[C@@H](O[C@@H]3O[C@H](CO)[C@@H](O)[C@H](O)[C@H]3O)C[C@]12C [Compound E1, Ginsenoside Rk3]
fe-B,0–12h (fraction of dose excreted into bile) ([2]; rat, in vivo, iv): 27.80 ± 7.01%

CC(C)=CCC[C@](C)(O[C@@H]1O[C@H](CO)[C@@H](O)[C@H](O)[C@H]1O)[C@H]1CC[C@]2(C)[C@@H]1[C@H](O)C[C@@H]1[C@@]3(C)CC[C@H](O[C@@H]4O[C@H](CO)[C@@H](O)[C@H](O)[C@H]4O)C(C)(C)[C@@H]3CC[C@]12C [Compound D1, Ginsenoside F2]
fe-B,0–12h (fraction of dose excreted into bile) [2, 4]: 7.46% and 7.46 ± 2.11%

CC(C)=CCC[C@](C)(O[C@@H]1O[C@H](CO[C@@H]2O[C@H](CO)[C@@H](O)[C@H](O)[C@H]2O)[C@@H](O)[C@H](O)[C@H]1O)[C@H]1CC[C@]2(C)[C@@H]1[C@H](O)C[C@@H]1[C@@]3(C)CC[C@H](O)C(C)(C)[C@@H]3[C@@H](O[C@@H]3O[C@H](CO)[C@@H](O)[C@H](O)[C@H]3O)C[C@]12C [Compound C12, Notoginsenoside R3]
fe-U,0–12h (fraction of dose excreted into urine) ([1]; rat, in vivo, iv): 36.16 ± 7.04%

CC(C)(O[C@@H]1O[C@H](CO)[C@@H](O)[C@H](O)[C@H]1O)[C@@H]1CC[C@](C)([C@H]2[C@@H](O)C[C@@]3(C)[C@@H]4C[C@H](O)[C@H]5C(C)(C)[C@@H](O[C@@H]6OC[C@@H](O)[C@H](O)[C@H]6O[C@@H]6O[C@H](CO)[C@@H](O)[C@H](O)[C@H]6O)CC[C@@]56C[C@@]46CC[C@]23C)O1 [Compound B5, Astragaloside V]
fe-U,0–12h (fraction of dose excreted into urine) ([1]; rat, in vivo, iv): 51.36 ± 7.44%

CC(C)=CCC[C@](C)(O[C@@H]1O[C@H](CO)[C@@H](O)[C@H](O)[C@H]1O)[C@H]1CC[C@]2(C)[C@@H]1[C@H](O)C[C@@H]1[C@@]3(C)CC[C@H](O)C(C)(C)[C@@H]3[C@@H](O[C@@H]3O[C@H](CO)[C@@H](O)[C@H](O)[C@H]3O[C@@H]3O[C@H](CO)[C@@H](O)[C@H](O)[C@H]3O)C[C@]12C [Compound C13, 20-Gluco-Ginsenoside Rf]
fe-U,0–12h (fraction of dose excreted into urine) ([1]; rat, in vivo, iv): 38.72 ± 6.57%

CC(C)=CCC[C@](C)(O[C@@H]1O[C@H](CO[C@@H]2O[C@@H](CO)[C@H](O)[C@H]2O)[C@@H](O)[C@H](O)[C@H]1O)[C@H]1CC[C@]2(C)[C@@H]1[C@H](O)C[C@@H]1[C@@]3(C)CC[C@H](O)C(C)(C)[C@@H]3[C@@H](O[C@@H]3O[C@H](CO)[C@@H](O)[C@H](O)[C@H]3O)C[C@]12C [Compound C11, Ginsenoside Re4]
fe-U,0–12h (fraction of dose excreted into urine) ([1]; rat, in vivo, iv): 48.30 ± 10.27%

CC(C)(O)[C@@H]1CC[C@](C)([C@H]2[C@@H](O)C[C@@]3(C)[C@@H]4C[C@H](O[C@@H]5O[C@H](CO)[C@@H](O)[C@H](O)[C@H]5O)[C@H]5C(C)(C)[C@@H](O[C@@H]6OC[C@@H](O)[C@H](O)[C@H]6O[C@@H]6O[C@H](CO)[C@@H](O)[C@H](O)[C@H]6O)CC[C@@]56C[C@@]46CC[C@]23C)O1 [Compound B4, Astragaloside VI]
fe-U,0–12h (fraction of dose excreted into urine) [1, 3]: 63.43 ± 11.75%
